Test results as given in patent publication US20200237695A1, “LEVOTHYROXINE LIQUID FORMULATIONS” (Hikma Pharmaceuticals USA Inc., priority 2019, published 2020).
≈ marks a conversion by molar mass, not a printed value.

Experiment: Levothyroxine solubilization in aqueous amino acid solutions
Type: physicochemical
Settings: aqueous buffer
Procedure: The formulations can further include one or more pH adjusters, for example, a single pH adjuster. The pH adjuster can be an amino acid, which can be the sole amino acid and pH adjuster in the formulation. The pH adjuster serves to aid in adjusting the pH of the aqueous formulation and selectively the solubilization of levothyroxine or any salt thereof in the liquid formulation. In one or more embodiments, the pH adjuster is arginine. In water, a concentration of arginine from about 1 mg/mL to about 20 mg/mL adjust the pH of water to about 10.3 to about 11.

In the case of N[C@@H](Cc1cc(I)c(Oc2cc(I)c(O)c(I)c2)c(I)c1)C(=O)O [levothyroxine, 4-(4-hydroxy-3,5-diiodophenoxy)-3,5-diiodo-L-phenylalanine], the solubility (aqueous arginine solution, arginine in aqueous solutions) is reported as > 0.5 mg/mL, the solubility (aqueous aspartic acid solution, aspartic acid 1 mg/mL in water) is reported as 0.45 mg/mL (≈ 579 µM) and the solubility (aqueous aspartic acid solution, aspartic acid 4 mg/mL in water) is reported as 0.1 mg/mL (≈ 129 µM).
